Experimental data published in article PMC9698716, “From Serendipity to Rational Identification of the 5,6,7,8-Tetrahydrobenzo[4,5]thieno[2,3-d]pyrimidin-4(3H)-one Core as a New Chemotype of AKT1 Inhibitors for Acute Myeloid Leukemia” (Pharmaceutics, 2022).
Like-named read-outs stand apart in the source and are kept apart here. Each block holds one compound with its values, some of them ahead of it.

Assays:
[1] = system: OCI-AML3; test: CellTiter Blue cell viability assay; assay type: cell-based, human; details: OCI-AML3, 48 h, read-out: cellular IC50
Text: (§1) The human AML cell lines, OCI-AML3 (carrying the NPM1 gene mutation A and the DNMT3A^R882C mutation), IMS-M2 (carrying the NPM1 gene mutation A), OCI-AML2 (with the wild-type NPM1 and DNMT3A^R635W mutation), and SKM-1 and MOLM-13 (with the wild-type NPM1) were previously reported. The cell lines were purchased from the Deutsche Sammelung von Mikroorganismen und Zellkulturen (DSMZ) (Braunschweig, Germany) cell bank and maintained according to the vendors’ instructions. Briefly, cultured cells were split every 3 days and maintained in an exponential growth phase. The cell lines were tested for mycoplasma using the Universal Mycoplasma Detection Kit (ATCC). The OCI-AML3 were grown in α-MEM supplemented with 20% fetal bovine serum, 100 U/mL penicillin, and 100 μg/mL streptomycin (P/S), and all other cell lines were cultured in RPMI and supplemented with a 10–20% fetal bovine serum and 100 U/mL penicillin and 100 μg/mL streptomycin. The cells were kept at 37 °C in a 5% CO2 incubator. Prior to screening, the appropriate cell concentration for all cell lines was determined. For the cell lines’ treatments, cells were maintained as follows: OCI-AML3 at 0.25 × 10^6/mL, OCI-AML2 and IMS-M2 at 0.35 × 10^6/mL, and SKM-1 and MOLM-13 at 0.5 × 10^6/mL. The compounds were re-suspended at 10 mM stock in DMSO. Further dilutions were performed in phosphate-buffer-saline (PBS) for pharmacological experiments. The cells were exposed to compounds at different concentrations for the indicated time points and sampled as described below. Briefly, the cells (4 × 10^5/mL) were seeded in 384-well plate and treated for 48 h with various concentrations (0.001 μM to 100 μM) of either one of the compounds, T101, T126, and T159, or NSC348884, as a positive control. Each plate included DMSO at 0.1% as a negative control. The metabolic cell activity was measured by using the CellTiter Blue proliferation agent (Roche) as described in the manufacturer’s procedure. Briefly, CellTiter Blue solution (Resazaurin) was added to each well and the plates were incubated at 37 °C with 5% CO2 for 4 h. During the incubation time, the resazurin is reduced to fluorescent resorufin in metabolically and proliferating living cells. The fluorescence intensity was measured using the automated Tecan plate reader (Tecan Group Ltd., Männedorf, Switzerland) at an excitation/emission wavelength of 531/572 nm. The fluorescence readouts were reported as relative fluorescence units (RFU) and read on a luminescence plate reader (Infinite 200 Pro, Tecan, CA, USA). The dose response curves ([…] (IC50)) were obtained by non-linear regression analysis using the GraphPad Prism 5.0 program. The concentration is shown as a logarithmic function. All the experiments were performed at least in triplicate, with technical repetition. The results are expressed as mean ± standard error of the mean (SEM). For the Colony Forming Unit (CFU) assay, 10 × 10^6 CD34+ human hematopoietic progenitors were received from unique healthy donors, upon signed informed consent, and were cultured in SFEM II (Serum-free medium) and P/S at a density of 1 × 10^6/mL with cytokines that are important for cell division and self-renewal: fms-like tyrosine kinase 3 (FLT3)-ligand, FLT3L (100 ng/mL), Stem Cell Factor, SCF (100 ng/mL) and Trombopoietin, and TPO (50 ng/mL) for 48 h before plating them on a Methocult medium.

[2] = system: SKM-1; test: CellTiter Blue cell viability assay; assay type: cell-based, human; details: SKM-1, 48 h, read-out: cellular IC50
Text: as §1

[3] = system: IMS-M2; test: CellTiter Blue cell viability assay; assay type: cell-based, human; details: IMS-M2, 48 h, read-out: cellular IC50
Text: as §1

[4] = system: OCI-AML2; test: CellTiter Blue cell viability assay; assay type: cell-based, human; details: OCI-AML2, 48 h, read-out: cellular IC50
Text: as §1

[5] = system: MOLM-13; test: CellTiter Blue cell viability assay; assay type: cell-based, human; details: MOLM-13, 48 h, read-out: cellular IC50
Text: as §1

[6] = molecular target: T1, AKT1 (Homo sapiens, UniProt P31749); test: AKT1 enzymatic inhibition assay; assay type: biochemical; details: for Ligand efficiency (LE = 1.4 pIC50/N): from AKT1 IC50, N = heavy atoms; for Ki: read-out: Ki (AKT1 inhibition constant)
T1 construct: purchased Kinase Logistics, Meyn, Germany #Aps 01-101
T1 sequence (P31749 whole entry): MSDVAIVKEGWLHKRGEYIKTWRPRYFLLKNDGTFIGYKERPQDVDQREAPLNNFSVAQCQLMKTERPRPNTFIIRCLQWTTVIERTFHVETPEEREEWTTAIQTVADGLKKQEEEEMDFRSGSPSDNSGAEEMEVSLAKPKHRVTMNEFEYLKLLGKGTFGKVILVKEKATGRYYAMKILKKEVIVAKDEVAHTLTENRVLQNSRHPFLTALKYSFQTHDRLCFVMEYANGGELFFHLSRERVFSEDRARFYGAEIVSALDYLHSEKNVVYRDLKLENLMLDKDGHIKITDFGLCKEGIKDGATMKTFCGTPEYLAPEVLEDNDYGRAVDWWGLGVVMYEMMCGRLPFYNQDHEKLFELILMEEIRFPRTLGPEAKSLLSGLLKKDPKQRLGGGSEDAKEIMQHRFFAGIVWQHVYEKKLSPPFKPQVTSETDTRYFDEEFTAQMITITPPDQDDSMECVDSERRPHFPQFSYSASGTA
Protocol: The studied compounds, including the standard inhibitor Staurosporine (Thermo-Fisher , Madrid, Spain, Invitrogen BP2541), were incubated with 3 nM AKT1 (#Aps 01-101; Kinase Logistics, Meyn, Germany) and 1.5 μM Profiler Pro peptide 6 (#760350; Perkin Elmer, Tres Cantos, Madrid, Spain) in the presence of different concentrations of Adenosine 5′triphosphate disodium salt, ATP (#A2383; Sigma Aldrich, Madrid, Spain) in a 384-well Microplate (#781076; Greiner, San Sebastián de los Reyes, Madrid, Spain). The reaction rate was calculated from kinetic measurements carried out measured in a Caliper EzReader LabChip 3000 (Caliper, Hopkinton, MA, USA) reader with samples taken each 10 min for a total time of 60 min. The percentage of substrate conversion rate was plotted versus the ATP concentration. The data was analyzed by non-linear fitting with GraphPad Prism by employing the Michaelis–Menten equation. The buffer assay used in the inhibition hAKT1 assay is: Hepes 100 mM, DMSO 4%, Brij 0.003%, Tween 20 0.004%, MgCl2 10 mM, with a pH = 7.5.
The Ki values were calculated by employing the GraphPad Prism equations.

[7] = system: p38 MAPK; test: activity against p38 MAPK (originally desired target); assay type: biochemical
[8] = system: AKT1; parameters: method as in PMID 33995085; details: ref [51]; cited from earlier work
[9] = system: AKT3; parameters: method as in PMID 33995085; details: ref [51]; cited from earlier work
[10] = 10 μM compound, read-out: %inh (percentage of inhibition of AKT1 activity)

IC50 [1]: 6.6 µM
IC50 [2]: 2.1 µM
IC50 [4]: 5.6 µM
IC50 [5]: 3.4 µM
Compound: Cc1ccc2nc(CN(CCN(Cc3nc4ccc(C)cc4[nH]3)Cc3nc4ccc(C)cc4[nH]3)Cc3nc4ccc(C)cc4[nH]3)[nH]c2c1 [NSC348884, reference compound]
IC50 [3]: 7.6 µM

IC50 [6]: 1.62 ± 0.15 µM
inhibition at 10 µM [6, 10]: 95%
Ligand efficiency (LE = 1.4 pIC50/N) [6]: 0.29 kcal mol^−1 N^−1
Ki [6]: 0.24 µM
IC50 ([1]; Homo sapiens, OCI-AML-3): > 30 µM
IC50 ([2]; Homo sapiens): > 30 µM
IC50 ([4]; Homo sapiens): > 30 µM
IC50 ([5]; Homo sapiens): > 30 µM
Compound: Cc1cc(-c2ccccc2)nc2nc(NC(=O)c3ccc(O)c(O)c3)nn12 [T101]
IC50 ([3]; Homo sapiens): > 30 µM

IC50 [6]: 26.6 ± 4.8 µM
potency against AKT1 (in words) [6]: moderately active
inhibition at 10 µM [6, 10]: 78%
Ligand efficiency (LE = 1.4 pIC50/N) [6]: 0.30 kcal mol^−1 N^−1
Compound: O=c1[nH]c(-c2ccc(O)c(O)c2)nc2sc3c(c12)CCC3 [T128]

IC50 [6]: 2.12 ± 0.26 µM
inhibition at 10 µM [6, 10]: 94%
Ki [6]: 1.91 µM
IC50 ([1]; Homo sapiens, OCI-AML-3): > 30 µM
IC50 ([2]; Homo sapiens): > 30 µM
IC50 ([4]; Homo sapiens): > 30 µM
IC50 ([5]; Homo sapiens): > 30 µM
Compound: NC(=O)c1c(NC(=O)c2ccc(O)c(O)c2)sc2c1CCCCC2 [T159]
IC50 ([3]; Homo sapiens): > 30 µM

IC50 [6]: 11.4 ± 2.8 µM
inhibition at 10 µM [6, 10]: 56%
inhibition at 50 µM ([6]; 50 μM compound solution (footnote b of Table S2), read-out: %inh (percentage of inhibition of AKT1 activity)): 56%
Ligand efficiency (LE = 1.4 pIC50/N) [6]: 0.28 kcal mol^−1 N^−1
Ki [6]: 4.19 ± 1.36 µM
Compound: NC(=O)c1c(NC(=O)c2ccc(F)cc2F)sc2c1CCCCC2 [T187, 2-(2,4-Difluorobenzamido)-5,6,7,8-tetrahydro-4H-cyclohepta[b]thiophene-3-carboxamide]
activity against p38 MAPK [7]: inactive

Continued, compound first:

Compound: O=c1[nH]c(-c2ccc(O)c(O)c2)nc2sc3c(c12)CCCCC3 [T124]
IC50 [6]: 30.9 µM
potency against AKT1 (in words) [6]: moderately active
%inh (percentage of inhibition of AKT1 activity) ([6]; 10 μM compound, 10 µM): 60%
inhibition at 10 µM [6, 10]: > 60%
Ligand efficiency (LE = 1.4 pIC50/N) [6]: 0.27 kcal mol^−1 N^−1

Compound: CC(C)NC[C@@H](C(=O)N1CCN(c2ncnc3c2[C@H](C)C[C@H]3O)CC1)c1ccc(Cl)cc1 [ipatasertib]
IC50 [8]: […]
IC50 [9]: […]
